Measured values published in patent US11530193B2, “Kinase inhibitors” (The University of Manchester, priority 2018, dated 2022).
Where two headings read alike, the source gives them in different places.

Legend:
[1] = target: SYK (Homo sapiens (Human), UniProt P43405); assay: Tm-Shift assay (thermal melting, SYPRO Orange); assay type: binding;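 note: recombinant His-tagged protein made in Sf9 insect cells by baculovirus, in HEPES NaCl buffer, heated stepwise with fluorescence recorded at every temperature step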
[2] = target: T1, CAMK1D (Homo sapiens (Human), UniProt Q8IU85); assay: Tm-Shift assay (thermal melting, SYPRO Orange); assay type: binding; details: for ΔTm at 10 µM: read-out: CAMK1d Tm-Shift; for CAMK1d Tm-Shift: compound 10 μM, protein 2 μM, ΔTm obs vs protein without ligand, triplicate
[3] = target: T1, CAMK1D; assay: Biochemical CaMK1D enzymatic activity assay (ADP-Glo Kinase Assay); details: 3 nM CaMK1D, 1 μM Calmodulin, […] Autocamtide-2, 10 μM ATP, 25C, 2 hours
[4] = compound 10 μM, protein 2 μM, ΔTm obs vs protein without ligand, triplicate

COC(=O)c1cc(Nc2nc(N3CCC[C@H](N)C3)ncc2C(N)=O)cc(C(C)(C)C#N)c1 [Example 45, Methyl (S)-3-((2-(3-aminopiperidin-1-yl)-5-carbamoylpyrimidin-4-yl)amino)-5-(2-cyanopropan-2-yl)benzoate]
SYK Tm-Shift [1, 4]: 4.6 °C | ΔTm at 10 µM [2]: 12.6 °C

Cc1ccc(Nc2nc(N3CCC[C@H](N)C3)ncc2C(N)=O)cc1S(=O)(=O)N1CCCCC1 [Example 6, (S)-2-(3-aminopiperidin-1-yl)-4-((4-methyl-3-(piperidin-1-ylsulfonyl)phenyl)amino) pyrimidine-5-carboxamide]
SYK Tm-Shift [1]: 3.3 °C | CAMK1d Tm-Shift [2]: 9.9 °C

CC(C)(C)c1cc(Nc2nc(N3CCC[C@H](N)C3)ncc2C(N)=O)cc(S(=O)(=O)N2CCOCC2)c1 [Example 104, (S)-2-(3-aminopiperidin-1-yl)-4-((3-(tert-butyl)-5-(morpholinosulfonyl)phenyl)amino) pyrimidine-5-carboxamide]
SYK Tm-Shift [1]: 0.9 °C | CAMK1d Tm-Shift [2]: 11.5 °C

CC(C)(C)c1cc(Nc2nc(N3CCC[C@H](N)C3)ncc2C(N)=O)cc(C(=O)N2CCOCC2)c1 [Example 29, (S)-2-(3-aminopiperidin-1-yl)-4-((3-(tert-butyl)-5-(morpholine-4-carbonyl)phenyl)amino)pyrimidine-5-carboxamide]
SYK Tm-Shift [1, 4]: 0.3 °C | ΔTm at 10 µM [2]: 12.4 °C

CNS(=O)(=O)c1cc(Nc2nc(Cl)ncc2C(N)=O)cc(C(F)(F)F)c1 [Example 108, 2-chloro-4-((3-(N-methylsulfamoyl)-5-(trifluoromethyl)phenyl)amino)pyrimidine-5-carboxamide]
SYK Tm-Shift [1, 4]: 0.3 °C | ΔTm at 10 µM [2]: 10.7 °C

CN(C)CCN(C)C(=O)c1cccc(Nc2nc(N3CCC[C@H](N)C3)ncc2C(N)=O)c1 [Example 25, (S)-2-(3-aminopiperidin-1-yl)-4-((3-((2-(dimethylamino)ethyl)(methyl)carbamoyl)phenyl)amino) pyrimidine-5-carboxamide]
SYK Tm-Shift [1]: 0.7 °C | CAMK1d Tm-Shift [2]: 8.1 °C

CN(C)S(=O)(=O)c1cc(Nc2nc(N3CCC[C@H](N)C3)ncc2C(N)=O)cc(C(C)(C)C)c1 [Example 105, (S)-2-(3-aminopiperidin-1-yl)-4-((3-(tert-butyl)-5-(N,N-dimethylsulfamoyl)phenyl)amino) pyrimidine-5-carboxamide]
SYK Tm-Shift [1]: 1.3 °C | CAMK1d Tm-Shift [2]: 12.9 °C

Cc1ccccc1-c1cc(Nc2nc(N3CCC[C@H](N)C3)ncc2C(N)=O)cc(C(=O)N2CCOCC2)c1 [Example 44, (S)-2-(3-aminopiperidin-1-yl)-4-((2′-methyl-5-(morpholine-4-carbonyl)-[1,1′-biphenyl]-3-yl)amino)pyrimidine-5-carboxamide]
SYK Tm-Shift [1, 4]: −0.3 °C | ΔTm at 10 µM [2]: 10.9 °C

CS(=O)(=O)c1cc(Nc2nc(N3CCC[C@H](N)C3)ncc2C(N)=O)cc(S(C)(=O)=O)c1.Cl [Example 9, (S)-2-(3-aminopiperidin-1-yl)-4-((3,5-bis(methylsulfonyl)phenyl)amino)pyrimidine-5-carboxamide hydrochloride]
SYK Tm-Shift [1]: 0.2 °C | ΔTm at 10 µM [2]: 10.1 °C

NC(=O)c1cnc(N2CCC[C@H](N)C2)nc1Nc1cc(-c2ccccc2)c2cn[nH]c2c1 [Example 60, (S)-2-(3-aminopiperidin-1-yl)-4-((4-phenyl-1H-indazol-6-yl)amino)pyrimidine-5-carboxamide]
ΔTm at 10 µM [2]: 9.9 °C | IC50 [3]: 10 nM

CC1(C)COCCN1C(=O)c1cc(Nc2nc(N3CCC[C@H](N)C3)ncc2C(N)=O)cc(C(F)(F)F)c1 [Example 32, (S)-2-(3-aminopiperidin-1-yl)-4-((3-(3,3-dimethylmorpholine-4-carbonyl)-5-(trifluoromethyl)phenyl)amino)pyrimidine-5-carboxamide]
SYK Tm-Shift [1, 4]: 2.1 °C | ΔTm at 10 µM [2]: 11.2 °C
